Laboratory results: US20260015333A1, “COMPOUNDS AND METHODS FOR INHIBITION OF THE EVOLUTION OF […]” (priority 2022, published 2026)

Target: Mfd (Salmonella typhimurium, UniProt Q8ZQ01)
Assay: Translocase assay (in vivo luminescence reporter system)
Type: cell-based, S. typhimurium
Text: FIGS. 1A-1C depict an in vivo high throughput screen identifing lead compound ARM-1. FIG. 1A is a schematic of in vivo screen design. In the upper panel, when Mfd is present, RNAP complexes stalled at the lacI-bound operator sequence are quickly removed, resulting in little to no transcription of the lux operon and low luminescence output. In the lower panel, when Mfd is either absent or inhibited, RNAP complexes stalled at the operator are not removed and are able to proceed during temporary dissociation of LacI, resulting in relatively high levels of luminescent output. FIG. 1B depicts the structure of the compound, ARM-1. […] Relative luminescence is normalized to no compound, solvent control, and 0.5% DMSO. *p<0.05 ***p<0.001.
In order to determine if Mfd's activity and/or RNAP termination function could be inactivated through the use of a small molecule, a high-throughput in vivo screen of roughly 250,000 compounds was conducted. […] The reporter system consists of one plasmid with a lac operator (lacO) encoded directly upstream of the lux operon which expresses proteins that produce luciferase, leading to easily detectable luminescence. […] The LacI protein which binds to lacO is a barrier to transcription; RNAP is unable to readily pass the bound protein and therefore, the transcription machinery stalls. […]

Sequence of Mfd (Q8ZQ01 entry or part of it): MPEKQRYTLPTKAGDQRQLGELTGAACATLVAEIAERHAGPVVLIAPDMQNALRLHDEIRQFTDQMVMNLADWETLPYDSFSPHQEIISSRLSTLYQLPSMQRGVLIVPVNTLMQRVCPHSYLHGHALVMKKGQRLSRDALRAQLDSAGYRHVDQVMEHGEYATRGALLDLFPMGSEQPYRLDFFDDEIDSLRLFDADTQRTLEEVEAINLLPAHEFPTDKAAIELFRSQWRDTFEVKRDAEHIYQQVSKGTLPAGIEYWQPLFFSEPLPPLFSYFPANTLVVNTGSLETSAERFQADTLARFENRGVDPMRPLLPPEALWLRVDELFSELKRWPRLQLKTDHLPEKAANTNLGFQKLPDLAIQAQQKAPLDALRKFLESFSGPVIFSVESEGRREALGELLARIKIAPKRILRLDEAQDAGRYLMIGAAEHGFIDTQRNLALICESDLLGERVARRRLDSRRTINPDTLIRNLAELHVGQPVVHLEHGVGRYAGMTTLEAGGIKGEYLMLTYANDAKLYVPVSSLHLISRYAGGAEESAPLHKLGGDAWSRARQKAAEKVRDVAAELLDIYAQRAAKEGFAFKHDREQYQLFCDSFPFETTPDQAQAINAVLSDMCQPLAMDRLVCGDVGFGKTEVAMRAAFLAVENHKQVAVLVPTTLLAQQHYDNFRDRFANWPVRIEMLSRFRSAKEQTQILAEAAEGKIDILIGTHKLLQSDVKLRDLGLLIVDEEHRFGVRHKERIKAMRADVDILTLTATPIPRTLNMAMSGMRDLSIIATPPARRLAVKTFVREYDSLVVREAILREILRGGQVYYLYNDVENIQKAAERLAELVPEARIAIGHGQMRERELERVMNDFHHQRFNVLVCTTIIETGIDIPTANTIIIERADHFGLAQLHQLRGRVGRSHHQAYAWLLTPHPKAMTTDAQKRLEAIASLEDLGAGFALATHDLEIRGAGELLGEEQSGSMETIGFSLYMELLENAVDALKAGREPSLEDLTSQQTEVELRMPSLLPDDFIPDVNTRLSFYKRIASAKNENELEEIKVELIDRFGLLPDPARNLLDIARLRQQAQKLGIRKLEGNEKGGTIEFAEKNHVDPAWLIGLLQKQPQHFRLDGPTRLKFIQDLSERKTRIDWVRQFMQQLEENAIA

Cc1cc(Br)ccc1-c1ccc(CNCCCN(C)C)o1 [ARM-1, N^1-((5-(4-bromo-2-methylphenyl)furan-2-yl)methyl)-N^3,N^3-dimethylpropane-1,3-diamine]
effect on luminescence in cells lacking Mfd: no effect
